Measured values as given in PMC7413254 (Nature Communications, 2020).

Columns and labels:
Type in all cases: cell-based
PfCRT^Dd2 [1] = target: T1, PfCRT^Dd2 (Plasmodium falciparum, UniProt Q9N623, A220S/I356T/K76T/M74I/N326S/N75E/Q271E/R371I); assay: cell-based; conditions: for PfCRT-mediated [3H]CQ transport, trans-stimulation (% PfCRTDd2 control): PfCRTDd2 oocytes, normalised to oocyte type control; for [3H]CQ transport (% PfCRTDd2 control), trans-stimulation, PfCRTDd2: PfCRT-mediated component (background subtracted), mean ± SEM, SEM
T1 sequence (Q9N623 whole entry A220S/I356T/K76T/M74I/N326S/N75E/Q271E/R371I): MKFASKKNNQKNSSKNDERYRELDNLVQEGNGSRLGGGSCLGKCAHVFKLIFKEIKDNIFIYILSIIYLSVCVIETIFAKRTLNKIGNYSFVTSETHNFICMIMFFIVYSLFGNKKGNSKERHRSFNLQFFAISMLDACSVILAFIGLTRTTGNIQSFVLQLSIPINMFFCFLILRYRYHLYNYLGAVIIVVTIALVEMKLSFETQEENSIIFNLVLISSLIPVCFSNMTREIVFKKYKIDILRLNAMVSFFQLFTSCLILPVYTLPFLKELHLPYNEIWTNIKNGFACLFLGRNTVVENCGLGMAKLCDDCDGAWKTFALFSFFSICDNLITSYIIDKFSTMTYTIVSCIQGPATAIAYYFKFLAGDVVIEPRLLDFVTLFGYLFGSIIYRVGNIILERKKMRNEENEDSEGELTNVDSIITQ
Summary of the method: (§1)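 Oocytes (ten per treatment, ≥4 independent frogs/days) were preloaded by injecting VF-6 in 25 nL ND96 at pH 5.0, 5.5, 6.0 or 7.0, or Na^+-free choline buffer, then uptake run 1.5 h, 27.5 °C, ND96 pH 5.5 by default. Internal concentrations assumed ~400 nL oocyte volume.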

PfCRT^Ecu1110 [2] = target: T2, PfCRT^Ecu1110 (Plasmodium falciparum, UniProt Q9N623, A220S/I356L/K76T/N326D); assay: cell-based; conditions: for PfCRT-mediated [3H]CQ transport, trans-stimulation (% PfCRTEcu1110 control): PfCRTEcu1110 oocytes, normalised to oocyte type control; for [3H]CQ transport (% PfCRTDd2 control), trans-stimulation, PfCRTEcu1110: PfCRT-mediated component (background subtracted), sheet title says normalised to PfCRTDd2 control, mean ± SEM, SEM
T2 sequence (Q9N623 whole entry A220S/I356L/K76T/N326D): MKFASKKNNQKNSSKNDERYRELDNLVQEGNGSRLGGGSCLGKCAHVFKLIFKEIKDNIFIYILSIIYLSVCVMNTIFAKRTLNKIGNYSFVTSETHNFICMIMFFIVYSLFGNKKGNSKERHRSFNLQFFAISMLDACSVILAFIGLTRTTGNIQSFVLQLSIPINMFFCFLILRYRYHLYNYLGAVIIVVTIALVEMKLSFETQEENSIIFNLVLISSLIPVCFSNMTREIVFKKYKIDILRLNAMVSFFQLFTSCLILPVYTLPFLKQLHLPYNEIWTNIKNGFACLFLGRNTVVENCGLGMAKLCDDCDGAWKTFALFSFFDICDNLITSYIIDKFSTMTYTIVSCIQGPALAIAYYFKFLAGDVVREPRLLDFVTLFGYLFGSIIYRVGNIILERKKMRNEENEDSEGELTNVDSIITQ
Summary of the method: as §1

PfCRT^3D7 = PfCRT^3D7 (Plasmodium falciparum, UniProt Q8IBZ9); assay: cell-based; conditions: PfCRT3D7 oocytes, normalised to oocyte type control
Chain of PfCRT^3D7 (Q8IBZ9 59-398): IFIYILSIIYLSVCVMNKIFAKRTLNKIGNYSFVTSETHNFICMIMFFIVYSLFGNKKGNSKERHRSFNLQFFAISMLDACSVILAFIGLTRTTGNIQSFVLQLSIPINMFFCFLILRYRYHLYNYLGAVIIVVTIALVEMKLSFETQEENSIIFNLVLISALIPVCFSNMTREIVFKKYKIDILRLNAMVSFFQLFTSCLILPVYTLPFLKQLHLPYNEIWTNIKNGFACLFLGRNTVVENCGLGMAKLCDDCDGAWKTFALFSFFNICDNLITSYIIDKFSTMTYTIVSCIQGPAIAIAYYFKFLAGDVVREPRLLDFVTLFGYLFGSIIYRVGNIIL
Summary of the method: as §1

PfCRT^Dd2 [3] = target: T1, PfCRT^Dd2; assay: [3H]CQ uptake into Xenopus oocytes, cis-inhibition by unlabelled solute; conditions: PfCRTDd2 oocytes, background [3H]CQ accumulation subtracted, normalised to oocyte type control
Summary of the method: (§2)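 ND96, pH 5.5, 1.5 h, 27.5 °C; uptake direction acidic outside → oocyte cytosol, mimicking efflux from digestive vacuole. Ice-cold wash stop, 10% SDS lysis, scintillation counting. Ten oocytes/treatment, ≥4 independent experiments.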

PfCRT^Ecu1110 [4] = target: T2, PfCRT^Ecu1110; assay: as above; conditions: for PfCRT-mediated [3H]CQ transport, cis-inhibition (% PfCRTEcu1110 control): PfCRTEcu1110 oocytes, background [3H]CQ accumulation subtracted, normalised to oocyte type control; for [3H]CQ transport (% PfCRTEcu1110 control), cis-inhibition, PfCRTEcu1110: PfCRT-mediated component (background subtracted), sheet title says normalised to PfCRTDd2 control, mean ± SEM, SEM
Summary of the method: as §2

[5] = [test solute]i = 5 mM (intracellular)
[6] = [test solute]i = 45 mM (intracellular; 30 mM for some solutes due to solubility)
[7] = [test solute]i = 5 mM (injected)
[8] = [test solute]i = 45 mM (30 mM for some solutes due to solubility)

Substance | PfCRT-mediated [3H]CQ transport, trans-stimulation (% PfCRTDd2 control) (PfCRT^Dd2 [1]; [5]) | PfCRT-mediated [3H]CQ transport, trans-stimulation (% PfCRTDd2 control) (PfCRT^Dd2 [1]; [6]) | PfCRT-mediated [3H]CQ transport, trans-stimulation (% PfCRTEcu1110 control) (PfCRT^Ecu1110 [2]; [5]) | PfCRT-mediated [3H]CQ transport, trans-stimulation (% PfCRTEcu1110 control) (PfCRT^Ecu1110 [2]; [6]) | PfCRT-mediated [3H]CQ transport, trans-stimulation (% PfCRT3D7 control) (PfCRT^3D7; [5]) | PfCRT-mediated [3H]CQ transport, trans-stimulation (% PfCRT3D7 control) (PfCRT^3D7; [6]) | PfCRT-mediated [3H]CQ transport, cis-inhibition (% PfCRTDd2 control) (PfCRT^Dd2 [3]; [test solute] = 0.5 mM) | PfCRT-mediated [3H]CQ transport, cis-inhibition (% PfCRTDd2 control) (PfCRT^Dd2 [3]; [test solute] = 1 mM) | PfCRT-mediated [3H]CQ transport, cis-inhibition (% PfCRTDd2 control) (PfCRT^Dd2 [3]; [test solute] = 2 mM) | PfCRT-mediated [3H]CQ transport, cis-inhibition (% PfCRTEcu1110 control) (PfCRT^Ecu1110 [4]; [test solute] = 0.5 mM) | PfCRT-mediated [3H]CQ transport, cis-inhibition (% PfCRTEcu1110 control) (PfCRT^Ecu1110 [4]; [test solute] = 1 mM) | PfCRT-mediated [3H]CQ transport, cis-inhibition (% PfCRTEcu1110 control) (PfCRT^Ecu1110 [4]; [test solute] = 2 mM) | [3H]CQ transport (% PfCRTDd2 control), trans-stimulation, PfCRTDd2 (PfCRT^Dd2 [1]; [7]) [% PfCRTDd2 control] | [3H]CQ transport (% PfCRTDd2 control), trans-stimulation, PfCRTDd2 (PfCRT^Dd2 [1]; [8]) [% PfCRTDd2 control] | [3H]CQ transport (% PfCRTDd2 control), trans-stimulation, PfCRTEcu1110 (PfCRT^Ecu1110 [2]; [7]) [% PfCRTEcu1110 control] | [3H]CQ transport (% PfCRTDd2 control), trans-stimulation, PfCRTEcu1110 (PfCRT^Ecu1110 [2]; [8]) [% PfCRTEcu1110 control] | [3H]CQ transport (% PfCRTEcu1110 control), cis-inhibition, PfCRTEcu1110 (PfCRT^Ecu1110 [4]; [test solute] = 0.5 mM) [% PfCRTEcu1110 control] | [3H]CQ transport (% PfCRTEcu1110 control), cis-inhibition, PfCRTEcu1110 (PfCRT^Ecu1110 [4]; [test solute] = 1 mM) [% PfCRTEcu1110 control] | [3H]CQ transport (% PfCRTEcu1110 control), cis-inhibition, PfCRTEcu1110 (PfCRT^Ecu1110 [4]; [test solute] = 2 mM) [% PfCRTEcu1110 control]
HVDPENFRL [HL-9] | 97 ± 2.0 | 98 ± 3.3 | 98 ± 3.6 | 96 ± 2.1 | 98 ± 3.5 | 97 ± 3.1 | 38 ± 1.0 | 31 ± 0.3 | 9 ± 0.8 | 41 ± 2.5 | 35 ± 2.6 | 28 ± 0.1 | – | – | – | – | – | – | –
PPVQA [PA-5] | 100 ± 4.2 | 95 ± 5.6 | 91 ± 5.7 | 97 ± 4.4 | 133 ± 4.6 | 178 ± 5.2 | 39 ± 1.1 | 31 ± 3.1 | 19 ± 1.2 | 59 ± 2.1 | 41 ± 1.4 | 28 ± 0.5 | 100 ± 4.2 | 95 ± 5.6 | 28 ± 1.7 | 29 ± 1.4 | 19 ± 0.3 | 13 ± 0.5 | 9.0 ± 0.05
HVDPENF [HF-7] | 100 ± 1.9 | 112 ± 1.7 | 131 ± 3.7 | 138 ± 4.1 | 140 ± 5.2 | 189 ± 6.2 | 40 ± 2.3 | 31 ± 2.3 | 18 ± 0.6 | 41 ± 1.8 | 31 ± 3.1 | 22 ± 0.4 | 100 ± 1.9 | 112 ± 1.7 | 40 ± 2.1 | 42 ± 1.5 | – | – | 7.0 ± 0.01
DMPNALS [DS-7, host-derived peptide upstream of PL-4] | 97 ± 3.6 | 112 ± 3.5 | 128 ± 3.1 | 135 ± 4.2 | 136 ± 4.1 | 188 ± 4.6 | 49 ± 1.1 | 41 ± 1.0 | 27 ± 0.2 | 51 ± 4.1 | 48 ± 1.4 | 29 ± 1.5 | 97 ± 3.6 | 112 ± 3.5 | 39 ± 1.6 | 41 ± 1.9 | 16 ± 0.2 | 15 ± 0.4 | 9.0 ± 0.05
FSDGLA [FA-6] | 102 ± 6.2 | 98 ± 4.2 | 98 ± 4.5 | 96 ± 4.7 | 134 ± 3.2 | 190 ± 4.6 | 29 ± 0.1 | 17 ± 0.7 | 10 ± 0.3 | 60 ± 0.7 | 42 ± 2.5 | 32 ± 0.5 | 102 ± 6.2 | 98 ± 4.2 | 30 ± 1.4 | 29 ± 1.3 | 19 ± 0.1 | – | 10 ± 0.3
